Assay results from ChEMBL document CHEMBL1201862, “PubChem BioAssay data set” (2004).
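48-hour exposure; five concentrations; linearly interpolated endpoints. GI50 is the concentration that inhibits growth by half.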 Calls of active or inactive are those of the source. Rule as the data show it: active = GI50 up to about 1.1 µM and inactive = higher. Non-standard residues stand in square brackets, D forms with d. Residues, ends and D or L forms follow the SMILES beside them.

Experiments:
Test in all cases: DTP human tumour cell line panel, 48 h
ACHN = system: ACHN
CAKI-1 = system: CAKI-1
HCC 2998 = system: HCC 2998
HCT-116 = system: HCT-116
HOP-92 = system: HOP-92
HT-29 = system: HT-29
IGROV-1 = system: IGROV-1
NCI-H226 = system: NCI-H226
NCI-H522 = system: NCI-H522
OVCAR-5 = system: OVCAR-5
RXF 393 = system: RXF 393
SF-295 = system: SF-295
SF-539 = system: SF-539
SK-MEL-2 = system: SK-MEL-2
SK-MEL-5 = system: SK-MEL-5
K562 = system: K562
KM12 = system: KM12
Malme-3M = system: Malme-3M
SK-MEL-28 = system: SK-MEL-28
UACC-257 = system: UACC-257

SMILES | GI50 (ACHN) | GI50 (CAKI-1) | GI50 (HCC 2998) | GI50 (HCT-116) | GI50 (HOP-92) | GI50 (HT-29) | GI50 (IGROV-1) | GI50 (NCI-H226) | GI50 (NCI-H522) | GI50 (OVCAR-5) | GI50 (RXF 393) | GI50 (SF-295) | GI50 (SF-539) | GI50 (SK-MEL-2) | GI50 (SK-MEL-5) | GI50 (K562) | GI50 (KM12) | GI50 (Malme-3M) | GI50 (SK-MEL-28) | GI50 (UACC-257)
c1csc(C(NC2=NCCO2)C2CC2)c1 (centres undefined) | > 100 µM (inactive) | > 100 µM (inactive) | > 100 µM (inactive) | > 100 µM (inactive) | 93.5 µM (inactive) | 83.9 µM (inactive) | > 100 µM (inactive) | > 100 µM (inactive) | > 100 µM (inactive) | > 100 µM (inactive) | > 100 µM (inactive) | > 100 µM (inactive) | > 100 µM (inactive) | > 100 µM (inactive) | > 100 µM (inactive) |  |  |  |  | 
CN(C)c1nc(N(C)C)nc(N(C)CN(C)c2ccc(Cl)cc2)n1 | > 100 µM (inactive) |  |  | > 100 µM (inactive) |  | > 100 µM (inactive) | > 100 µM (inactive) | > 100 µM (inactive) | > 100 µM (inactive) |  | > 100 µM (inactive) | > 100 µM (inactive) | > 100 µM (inactive) | > 100 µM (inactive) | > 100 µM (inactive) | > 100 µM (inactive) | > 100 µM (inactive) | > 100 µM (inactive) | > 100 µM (inactive) | > 100 µM (inactive)
CN(C)CCNc1c2ccccc2c2c3c(cccc13)C(=O)N(CCN(C)C)C2=O |  | 0.423 µM (active) | 0.152 µM (active) | 0.0254 µM (active) | 0.138 µM (active) | 0.029 µM (active) | 0.0968 µM (active) | 1.82 µM (inactive) | 0.123 µM (active) | 0.224 µM (active) | 0.0232 µM (active) | 0.069 µM (active) | 0.374 µM (active) | 0.188 µM (active) | 0.697 µM (active) | 0.0522 µM (active) | 0.232 µM (active) | 0.348 µM (active) | 0.0735 µM (active) | 0.49 µM (active)
COc1cc2c3c(c4cc(OC)c(OC)cc4c2cc1OC)C(=O)C1CCC(=O)N1C3 (centres undefined) | 5.86 µM (inactive) | 8.75 µM (inactive) | 21.7 µM (inactive) |  | 12 µM (inactive) |  | 2.43 µM (inactive) |  | 3.1 µM (inactive) |  | 14.8 µM (inactive) | 21.6 µM (inactive) | 10.9 µM (inactive) | 41.9 µM (inactive) | 34 µM (inactive) | 14 µM (inactive) | 70.1 µM (inactive) | 8.75 µM (inactive) | 19.8 µM (inactive) | 41.9 µM (inactive)
CC(=O)NCCC1CN(C(=O)/C=C\C#C[Si](C)(C)C)c2ccccc21 (centres undefined) | 26.6 µM (inactive) | 13.8 µM (inactive) | 20.1 µM (inactive) | > 10 µM (inactive) | 41.1 µM (inactive) | 20.3 µM (inactive) | 14.1 µM (inactive) | 14.9 µM (inactive) | 10.5 µM (inactive) | 17.1 µM (inactive) | 12.1 µM (inactive) | 21.5 µM (inactive) | 20.3 µM (inactive) | 14 µM (inactive) | 6.35 µM (inactive) | 15.3 µM (inactive) | 24.7 µM (inactive) | 13.1 µM (inactive) | 50.8 µM (inactive) | 2.55 µM (inactive)
COc1ccc(/C=N/n2cnc3c(c2=O)S/C(=C2/SC(=S)N(c4ccc(C)cc4)C2=O)N3c2ccccc2)cc1 | 49.1 µM (inactive) | > 10 µM (inactive) | > 100 µM (inactive) | 56 µM (inactive) | 25.8 µM (inactive) | > 100 µM (inactive) | 42.7 µM (inactive) | > 100 µM (inactive) | 52.4 µM (inactive) | > 100 µM (inactive) | 17.3 µM (inactive) | 11.6 µM (inactive) | 30.5 µM (inactive) | 79.4 µM (inactive) |  | > 10 µM (inactive) | > 100 µM (inactive) | 19.7 µM (inactive) | > 100 µM (inactive) | 
Oc1ccc(-c2nc3ccc(Br)cc3s2)cc1 | 22.2 µM (inactive) | 15.7 µM (inactive) |  | 20 µM (inactive) |  | 18.2 µM (inactive) | 12.9 µM (inactive) | 16.3 µM (inactive) | 10.7 µM (inactive) | 24 µM (inactive) | 31.3 µM (inactive) | 17.6 µM (inactive) | 14.8 µM (inactive) | 17.9 µM (inactive) | 13.5 µM (inactive) | 23.5 µM (inactive) | 14.7 µM (inactive) | 27 µM (inactive) |  | 21.4 µM (inactive)
CC(C)C[C@H](NC(=O)[C@H](CC(C)C)NC(=O)[C@@H](Cc1c[nH]c2ccccc12)NC(=O)[C@H](Cc1ccccc1)NC(=O)[C@@H](Cc1c[nH]c2ccccc12)NC(=O)[C@H](CCC(N)=O)NC(=O)[C@H](CCC(N)=O)NC(=O)[C@H]1CCCN1C(=O)[C@@H](N)CCCCN)C(N)=O (H-K[dP]QQ[dW]F[dW]LL-NH2) |  |  | > 100 µM (inactive) | > 100 µM (inactive) | > 100 µM (inactive) | > 100 µM (inactive) | > 100 µM (inactive) | > 100 µM (inactive) | > 100 µM (inactive) | > 100 µM (inactive) | > 100 µM (inactive) | > 100 µM (inactive) | > 100 µM (inactive) | > 100 µM (inactive) | > 100 µM (inactive) | > 100 µM (inactive) | > 100 µM (inactive) | > 100 µM (inactive) | > 100 µM (inactive) | > 100 µM (inactive)
